Consider 22 compounds from patent US12172990B2 (Constellation Pharmaceuticals, Inc., priority 2018, dated 2024).

The target in one assay is full length human TREX1 (Homo sapiens (Human), UniProt Q9NSU2). The assay is described as follows: TREX1 Biochemical Assay (fluorescence assay measuring degradation of dsDNA substrate). Conditions: 150 pM TREX1, 60 nM dsDNA substrate, 25 minutes at room temperature. The protocol: Degradation of the dsDNA liberates free fluorophore to produce a fluorescent signal. Specifically, 7.5 μL of N-terminally His-Tev tagged full length human TREX1 (expressed in E. coli and purified in house) in reaction buffer (50 mM Tris (pH 7.4), 150 mM NaCl, 2 mM DTT, 0.1 mg/mL BSA, 0.01% (v/v) Tween-20 and 100 mM MgCl2 were added to a 384-well Black ProxiPlate Plus (Perkin Elmer) which already contained compound (150 nL) at varying concentrations as a 10 point dose-response in DMSO. To this was added 7.5 μL of dsDNA substrate (Strand A: 5′ TEX615/GCT AGG CAG 3′; Strand B: 5′ CTG CCT AGC/IAbRQSp (Integrated DNA Technologies)) in reaction buffer. Final concentrations were 150 pM TREX1, 60 nM dsDNA substrate in reaction buffer with 1.0% DMSO (v/v). After 25 minutes at room temperature, reactions were quenched by the addition of 5 μL of stop buffer (same as reaction buffer plus 200 mM EDTA). Final concentrations in the quenched reaction were 112.5 pM TREX1, 45 nM DNA and 50 mM EDTA in a volume of 20 μL. After a 5-minute incubation at room temperature, plates were read in a laser sourced Envision (Perkin-Elmer), measuring fluorescence at 615 nm following excitation w/570 nm light. IC50 values were calculated by comparing the measured fluorescence at 615 nm ratio relative to control wells pre-quenched w/stop buffer (100% inhibition) and no inhibitor (0% inhibition) controls as using non-linear least square four parameter fits and either Genedata or GraphPad Prism (GraphPad Software, Inc.).

For assay [1], the target named is human TREX2 (residues M44-A279) (Homo sapiens (Human), UniProt Q9BQ50). The assay is described as follows: TREX2 Biochemical Assay (fluorescence assay measuring degradation of dsDNA substrate). Conditions: 2.5 nM TREX2, 60 nM dsDNA substrate, 25 minutes at room temperature. The protocol:
Degradation of the dsDNA liberates free fluorophore to produce a fluorescent signal. Specifically, 7.5 μL of N-terminally His-Tev tagged human TREX2 (residues M44-A279, expressed in E. coli and purified in house) in reaction buffer (50 mM Tris (pH 7.4), 150 mM NaCl, 2 mM DTT, 0.1 mg/mL BSA, 0.01% (v/v) Tween-20 and 100 mM MgCl2) was added to a 384-well Black ProxiPlate Plus (Perkin Elmer) which already contained compound (150 nL) at varying concentrations as a 10 point dose-response in DMSO. To this was added 7.5 μL of dsDNA substrate (Strand A: 5′ TEX615/GCT AGG CAG 3′; Strand B: 5′ CTG CCT AGC/IAbRQSp (IDT)) in reaction buffer. Final concentrations were 2.5 nM TREX2, 60 nM dsDNA substrate in reaction buffer with 1.0% DMSO (v/v). After 25 minutes at room temperature, reactions were quenched by the addition of 5 μL of stop buffer (same as reaction buffer plus 200 mM EDTA). Final concentrations in the quenched reaction mixture were […] TREX2, 45 nM DNA and 50 mM EDTA in a volume of 20 μL. After a 5-minute incubation at room temperature, plates were read in a laser sourced Envision (Perkin-Elmer), measuring fluorescence at 615 nm following excitation w/570 nm light. IC50 values were calculated by comparing the measured fluorescence at 615 nm ratio relative to control wells pre-quenched w/stop buffer (100% inhibition) and no inhibitor (0% inhibition) controls as using non-linear least square four parameter fits and either Genedata or GraphPad Prism (GraphPad Software, Inc.).

Chain of full length human TREX1 (Q9NSU2 whole entry): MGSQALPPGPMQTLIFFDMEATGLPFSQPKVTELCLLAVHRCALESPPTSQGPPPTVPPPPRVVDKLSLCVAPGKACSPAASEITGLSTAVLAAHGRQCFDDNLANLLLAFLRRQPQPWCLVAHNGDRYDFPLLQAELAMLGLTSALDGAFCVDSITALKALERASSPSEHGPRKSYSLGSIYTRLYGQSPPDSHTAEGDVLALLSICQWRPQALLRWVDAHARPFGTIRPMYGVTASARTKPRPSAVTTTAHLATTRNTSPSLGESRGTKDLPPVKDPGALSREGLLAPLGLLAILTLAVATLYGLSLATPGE
Chain of human TREX2 (residues M44-A279) (Q9BQ50 whole entry, the tested form may be a part): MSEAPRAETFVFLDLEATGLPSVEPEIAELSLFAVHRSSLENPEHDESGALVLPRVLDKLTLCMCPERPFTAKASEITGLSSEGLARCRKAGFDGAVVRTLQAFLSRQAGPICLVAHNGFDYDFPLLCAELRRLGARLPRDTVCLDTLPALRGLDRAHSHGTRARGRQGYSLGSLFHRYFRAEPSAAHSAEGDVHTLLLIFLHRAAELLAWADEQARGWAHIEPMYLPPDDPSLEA

`Cn1c(C(NC(=O)OCc2ccccc2)c2ccc(Br)cc2)nc(C(=O)Nc2cnoc2)c(O)c1=O` (centres unmarked) [Example 24, benzyl ((4-bromophenyl)(5-hydroxy-4-(isoxazol-4-ylcarbamoyl)-1-methyl-6-oxo-1,6-dihydropyrimidin-2-yl)methyl)carbamate]: the results for the IC50 (on full length human TREX1; in assay [1]) were 100 to 1000 nM and greater than 100000 nM, respectively.
The corresponding values for `Cc1cc(C)cc(-c2nc(C(=O)Nc3cnoc3)c(O)c(=O)n2C)c1` [Example 25, 2-(3,5-dimethylphenyl)-5-hydroxy-N-(isoxazol-4-yl)-1-methyl-6-oxo-1,6-dihydropyrimidine-4-carboxamide] are 100 to 1000 nM and 1000 to 10000 nM.
Regarding `Cn1c(Cc2ccccn2)nc(C(=O)Nc2cnoc2)c(O)c1=O` [Example 26, 5-hydroxy-N-(isoxazol-4-yl)-1-methyl-6-oxo-2-(pyridin-2-ylmethyl)-1,6-dihydropyrimidine-4-carboxamide], the IC50 lay in the range of 1000 to 10000 nM against full length human TREX1 and 10000 to 100000 nM in assay [1].
The corresponding values for `Cn1c(-c2ccccn2)nc(C(=O)Nc2cnoc2)c(O)c1=O` [Example 27, 5-hydroxy-N-(isoxazol-4-yl)-1-methyl-6-oxo-2-(pyridin-2-yl)-1,6-dihydropyrimidine-4-carboxamide] are greater than 10000 nM and greater than 100000 nM.
The corresponding values for `Cn1c(N2CCCCC2)nc(C(=O)Nc2cnoc2)c(O)c1=O` [Example 28, 5-hydroxy-N-(isoxazol-4-yl)-1-methyl-6-oxo-2-(piperidin-1-yl)-1,6-dihydropyrimidine-4-carboxamide] are 100 to 1000 nM and 10000 to 100000 nM.
As to `Cn1c(-c2cccnc2)nc(C(=O)Nc2cnoc2)c(O)c1=O` [Example 29, 5-hydroxy-N-(isoxazol-4-yl)-1-methyl-6-oxo-2-(pyridin-3-yl)-1,6-dihydropyrimidine-4-carboxamide], the IC50 at full length human TREX1 was in the range of 1000 to 10000 nM; in assay [1], 10000 to 100000 nM.
The corresponding values for `Cn1c(-c2cc(Cl)cc(Cl)c2)nc(C(=O)Nc2cnoc2)c(O)c1=O` [Example 30, 2-(3,5-dichlorophenyl)-5-hydroxy-N-(isoxazol-4-yl)-1-methyl-6-oxo-1,6-dihydropyrimidine-4-carboxamide] are 100 to 1000 nM and 1000 to 10000 nM.
The corresponding values for `Cc1cc(-c2nc(C(=O)Nc3cnoc3)c(O)c(=O)n2C)cc(N2CCOCC2)c1` [Example 31, 5-hydroxy-N-(isoxazol-4-yl)-1-methyl-2-(3-methyl-5-morpholinophenyl)-6-oxo-1,6-dihydropyrimidine-4-carboxamide] are 100 to 1000 nM and 1000 to 10000 nM.
For the compound `Cc1cc(Nc2cnn(C)c2)cc(-c2nc(C(=O)Nc3cnoc3)c(O)c(=O)n2C)c1` [Example 32, 5-hydroxy-N-(isoxazol-4-yl)-1-methyl-2-(3-methyl-5-((1-methyl-1H-pyrazol-4-yl)amino)phenyl)-6-oxo-1,6-dihydropyrimidine-4-carboxamide], the IC50 lay in the range of 100 to 1000 nM at full length human TREX1 and 1000 to 10000 nM in assay [1].
The corresponding values for `Cc1cc(-c2nc(C(=O)Nc3cnoc3)c(O)c(=O)n2C)cc(N2CCN(C)CC2)c1` [Example 33, 5-hydroxy-N-(isoxazol-4-yl)-1-methyl-2-(3-methyl-5-(4-methylpiperazin-1-yl)phenyl)-6-oxo-1,6-dihydropyrimidine-4-carboxamide] are 100 to 1000 nM and 10000 to 100000 nM.
In the case of `Cc1cc(Nc2cccc(C)n2)cc(-c2nc(C(=O)Nc3cnoc3)c(O)c(=O)n2C)c1` [Example 34, 5-hydroxy-N-(isoxazol-4-yl)-1-methyl-2-(3-methyl-5-((6-methylpyridin-2-yl)amino)phenyl)-6-oxo-1,6-dihydropyrimidine-4-carboxamide], the IC50 on full length human TREX1 was in the range of 100 to 1000 nM; in assay [1], 1000 to 10000 nM.
The corresponding values for `Cc1cc(-c2ccn(C)n2)cc(-c2nc(C(=O)Nc3cnoc3)c(O)c(=O)n2C)c1` [Example 35, 5-hydroxy-N-(isoxazol-4-yl)-1-methyl-2-(3-methyl-5-(1-methyl-1H-pyrazol-3-yl)phenyl)-6-oxo-1,6-dihydropyrimidine-4-carboxamide] are 100 to 1000 nM and 1000 to 10000 nM.
The corresponding values for `Cc1cc(C(=O)N(C)C)cc(-c2nc(C(=O)Nc3cnoc3)c(O)c(=O)n2C)c1` [Example 36, 2-(3-(dimethylcarbamoyl)-5-methylphenyl)-5-hydroxy-N-(isoxazol-4-yl)-1-methyl-6-oxo-1,6-dihydropyrimidine-4-carboxamide] are 100 to 1000 nM and 10000 to 100000 nM.
The corresponding values for `Cc1cc(C(=O)NC2CCOCC2)cc(-c2nc(C(=O)Nc3cnoc3)c(O)c(=O)n2C)c1` [Example 37, 5-hydroxy-N-(isoxazol-4-yl)-1-methyl-2-(3-methyl-5-((tetrahydro-2H-pyran-4-yl)carbamoyl)phenyl)-6-oxo-1,6-dihydropyrimidine-4-carboxamide] are 100 to 1000 nM and 10000 to 100000 nM.
For `Cc1cc(C(=O)NCCO)cc(-c2nc(C(=O)Nc3cnoc3)c(O)c(=O)n2C)c1` [Example 38, 5-hydroxy-2-(3-((2-hydroxyethyl)carbamoyl)-5-methylphenyl)-N-(isoxazol-4-yl)-1-methyl-6-oxo-1,6-dihydropyrimidine-4-carboxamide], the IC50 against full length human TREX1 was 100 to 1000 nM; in assay [1] it was 10000 to 100000 nM.
For `Cn1c(C2CCCN(Cc3ccccc3)C2)nc(C(=O)Nc2cnoc2)c(O)c1=O` (centres unmarked) [Example 39, 2-(1-benzylpiperidin-3-yl)-5-hydroxy-N-(isoxazol-4-yl)-1-methyl-6-oxo-1,6-dihydropyrimidine-4-carboxamide], the IC50 lay within 1000 to 10000 nM against full length human TREX1 and 10000 to 100000 nM in assay [1].
Take `Cn1c(C2CCCN(C(=O)c3ccccn3)C2)nc(C(=O)Nc2cnoc2)c(O)c1=O` (centres unmarked) [Example 40, 5-hydroxy-N-(isoxazol-4-yl)-1-methyl-6-oxo-2-(1-picolinoylpiperidin-3-yl)-1,6-dihydropyrimidine-4-carboxamide]: the IC50 at full length human TREX1 was 100 to 1000 nM; in assay [1], 1000 to 10000 nM.
Turning to `COc1ccccc1C(=O)N1CCCC(c2nc(C(=O)Nc3cnoc3)c(O)c(=O)n2C)C1` (centres unmarked) [Example 41, 5-hydroxy-N-(isoxazol-4-yl)-2-(1-(2-methoxybenzoyl)piperidin-3-yl)-1-methyl-6-oxo-1,6-dihydropyrimidine-4-carboxamide], the IC50 against full length human TREX1 was 100 to 1000 nM; in assay [1], 10000 to 100000 nM.
With `Cn1c(-c2cnn(Cc3ccccc3)c2)nc(C(=O)Nc2cnoc2)c(O)c1=O` [Example 42, 2-(1-benzyl-1H-pyrazol-4-yl)-5-hydroxy-N-(isoxazol-4-yl)-1-methyl-6-oxo-1,6-dihydropyrimidine-4-carboxamide], the IC50 is 100 to 1000 nM at full length human TREX1 and 10000 to 100000 nM in assay [1].
`Cn1c(C2CCCN(C(=O)CCc3ccccc3)C2)nc(C(=O)Nc2cnoc2)c(O)c1=O` (centres unmarked) [Example 43, 5-hydroxy-N-(isoxazol-4-yl)-1-methyl-6-oxo-2-(1-(3-phenylpropanoyl)piperidin-3-yl)-1,6-dihydropyrimidine-4-carboxamide]: the IC50 at full length human TREX1 is less than 100 nM; in assay [1], 1000 to 10000 nM.
The corresponding values for `Cc1cccc(-c2nc(C(=O)Nc3cnoc3)c(O)c(=O)n2C)c1` [Example 44, 5-hydroxy-N-(isoxazol-4-yl)-1-methyl-6-oxo-2-(m-tolyl)-1,6-dihydropyrimidine-4-carboxamide] are 100 to 1000 nM and 10000 to 100000 nM.
The corresponding values for `Cn1c(C2CCCN(C(=O)c3cccc(Cl)c3)C2)nc(C(=O)Nc2cnoc2)c(O)c1=O` (centres unmarked) [Example 45, 2-(1-(3-chlorobenzoyl)piperidin-3-yl)-5-hydroxy-N-(isoxazol-4-yl)-1-methyl-6-oxo-1,6-dihydropyrimidine-4-carboxamide] are less than 100 nM and 1000 to 10000 nM.
